Structures can show the parent of a compound that is named as a salt.
What follows are compounds tested against T1, IκBα-kinase complex (Homo sapiens, UniProt O14920+O15111) (assay: IkB-Kinase ELISA). Details: IkB-kinase IC50.
T1 construct: endogenous in cells; host or cells: HeLa S3 cell extract, S100 fraction; ammonium sulfate precipitation and Superose-6 size exclusion
Assay type: biochemical
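Also: substrate phosphopeptide captured on Protein-A plates, detected with Streptavidin-HRP and TMB absorbance at 450 nm, activity read from a synthetic phosphopeptide standard curve.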

T1 sequence (O14920 whole entry): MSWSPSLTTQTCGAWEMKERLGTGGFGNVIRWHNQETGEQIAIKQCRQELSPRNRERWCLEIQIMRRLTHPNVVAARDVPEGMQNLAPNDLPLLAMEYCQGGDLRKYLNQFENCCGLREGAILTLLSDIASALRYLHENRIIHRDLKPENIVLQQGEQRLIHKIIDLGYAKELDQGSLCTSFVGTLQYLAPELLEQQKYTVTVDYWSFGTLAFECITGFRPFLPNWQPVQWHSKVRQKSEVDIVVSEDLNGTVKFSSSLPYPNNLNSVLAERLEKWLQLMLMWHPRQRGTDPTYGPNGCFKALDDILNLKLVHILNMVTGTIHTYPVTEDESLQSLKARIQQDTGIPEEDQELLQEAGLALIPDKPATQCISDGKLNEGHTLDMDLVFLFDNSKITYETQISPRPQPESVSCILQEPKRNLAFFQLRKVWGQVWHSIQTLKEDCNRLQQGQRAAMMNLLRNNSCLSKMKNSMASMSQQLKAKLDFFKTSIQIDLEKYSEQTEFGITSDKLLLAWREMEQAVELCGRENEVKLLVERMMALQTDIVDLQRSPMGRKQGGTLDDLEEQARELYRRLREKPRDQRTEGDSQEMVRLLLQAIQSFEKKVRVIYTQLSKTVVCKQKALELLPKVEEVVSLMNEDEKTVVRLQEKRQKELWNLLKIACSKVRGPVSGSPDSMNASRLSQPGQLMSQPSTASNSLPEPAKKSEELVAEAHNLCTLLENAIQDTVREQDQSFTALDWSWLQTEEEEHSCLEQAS
T1 sequence (O15111 whole entry): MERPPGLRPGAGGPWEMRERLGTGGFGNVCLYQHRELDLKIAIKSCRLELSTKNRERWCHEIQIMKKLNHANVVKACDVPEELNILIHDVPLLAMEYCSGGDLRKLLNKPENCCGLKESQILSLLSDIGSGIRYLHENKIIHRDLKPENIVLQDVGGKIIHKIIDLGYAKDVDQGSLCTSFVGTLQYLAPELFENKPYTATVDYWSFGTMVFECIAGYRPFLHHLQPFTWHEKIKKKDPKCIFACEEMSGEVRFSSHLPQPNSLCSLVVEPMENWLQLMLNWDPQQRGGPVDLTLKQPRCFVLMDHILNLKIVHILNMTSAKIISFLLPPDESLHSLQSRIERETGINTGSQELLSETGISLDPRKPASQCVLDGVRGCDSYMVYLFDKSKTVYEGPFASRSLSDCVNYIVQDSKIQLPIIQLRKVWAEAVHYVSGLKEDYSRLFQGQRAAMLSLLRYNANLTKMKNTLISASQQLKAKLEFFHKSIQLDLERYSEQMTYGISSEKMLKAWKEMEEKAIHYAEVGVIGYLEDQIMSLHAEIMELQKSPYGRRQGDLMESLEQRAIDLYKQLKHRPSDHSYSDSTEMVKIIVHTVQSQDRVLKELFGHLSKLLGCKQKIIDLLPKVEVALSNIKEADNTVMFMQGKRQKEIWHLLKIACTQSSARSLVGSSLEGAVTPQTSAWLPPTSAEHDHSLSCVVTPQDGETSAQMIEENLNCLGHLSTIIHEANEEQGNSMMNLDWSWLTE
T1 sequence (Q9Y6K9 whole entry partner): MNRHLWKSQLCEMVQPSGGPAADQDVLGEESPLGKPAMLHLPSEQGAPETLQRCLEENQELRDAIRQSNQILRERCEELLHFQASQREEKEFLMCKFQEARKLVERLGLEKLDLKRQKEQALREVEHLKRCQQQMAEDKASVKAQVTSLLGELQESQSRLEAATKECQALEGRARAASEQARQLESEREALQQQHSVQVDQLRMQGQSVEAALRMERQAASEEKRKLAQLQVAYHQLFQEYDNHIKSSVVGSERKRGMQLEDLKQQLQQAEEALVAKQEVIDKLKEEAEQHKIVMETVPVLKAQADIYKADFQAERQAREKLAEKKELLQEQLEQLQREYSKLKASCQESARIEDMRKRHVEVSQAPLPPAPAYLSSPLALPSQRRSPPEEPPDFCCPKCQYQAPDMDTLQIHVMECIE

Structure (SMILES)	IC50 [nM]
Clc1cc2c([nH]c3cnccc32)c(Cl)c1OCC1CCCCC1 [Example 96]	1300
CN(C)c1cc(Cl)cc2c1[nH]c1cnccc12 [Example 44, trifluoroacetate]	2000

Same assay, conditions: IkB-kinase, unit inferred; read-out: IC50

IC50 [nM]	Structure (SMILES)
1700	Nc1ccc(C(=O)Nc2cc(Cl)cc3c2[nH]c2cnccc23)cn1 [Example 121]

Same assay, conditions: activated IκBα kinase complex from HeLa S3 cell extracts; ELISA; read-out: IkB-kinase IC50

Structure (SMILES)	IC50 [nM]
O=C1CC[C@H](C(=O)Nc2cc(Cl)cc3c2[nH]c2cnccc23)N1 [Example 99]	90
CC(=O)Oc1ccc2c(c1)[nH]c1c(C)nccc12 [Example 29]	40000
O=C1CC[C@H](C(=O)Nc2cc(Cl)cc3c2[nH]c2cnccc23)O1 [Example 111]	540
Cc1nccc2c1[nH]c1cc(OCC(=O)OC(C)(C)C)ccc12 [Example 25]	31000
Cc1nccc2c1[nH]c1ccc(Br)cc12 [Example 28]	11000
O=C1COc2c(Cl)cc3c([nH]c4cnccc43)c2N1 [Example 91]	2300
O=C(Nc1cc(Cl)cc2c1[nH]c1cnccc12)c1cccnc1O [Example 104]	1000
COc1c(Cl)cc2c([nH]c3cnccc32)c1Cl [Example 37, trifluoroacetate]	150
CCN(CC)CCOc1c(Cl)cc2c([nH]c3cnccc32)c1Cl [Example 93]	1300
Fc1cc2[nH]c3cnccc3c2cc1Cl [Example 34]	1000
O=C(Nc1cc(Cl)cc2c1[nH]c1cnccc12)c1cccnc1 [Example 60, N-(6-Chloro-9H-β-carbolin-8-yl)-nicotinamide]	52
O=C(Nc1cc(Cl)cc2c1[nH]c1cnccc12)c1ccccn1 [Example 87]	750
O=C(Nc1cc(Cl)cc2c1[nH]c1cnccc12)c1ccc2c(c1)OCO2 [Example 89]	570
O=C(Nc1cc(Cl)cc2c1[nH]c1cnccc12)C1CCCC1 [Example 117]	670
Clc1cc2c([nH]c3cnccc32)c(Cl)c1OCc1ccccc1 [Example 81]	250
O=C(Nc1cc(Cl)cc2c1[nH]c1cnccc12)c1ccc(Cl)cc1 [Example 116]	1800
O=C(Nc1c(O)c(Cl)cc2c1[nH]c1cnccc12)c1cccnc1 [Example 115]	4600
COCC(=O)Nc1cc(Cl)cc2c1[nH]c1cnccc12 [Example 51, trifluoroacetate]	600
CS(=O)(=O)n1c2ccc(Br)cc2c2ccncc21 [Example 10]	400
CC(C)(C)C(=O)Nc1cc(Cl)cc2c1[nH]c1cnccc12 [Example 57]	4300
CC(=O)N(C)c1cc(Cl)cc2c1[nH]c1cnccc12 [Example 48, trifluoroacetate]	4000
CC(=O)n1c2ccc(Br)cc2c2ccncc21 [Example 2]	400
O=C(Cc1cccs1)Nc1cc(Cl)cc2c1[nH]c1cnccc12 [Example 86]	700

Structure (SMILES)	IC50 [nM]
Oc1c(Cl)cc2c([nH]c3cnccc32)c1Cl [Example 38]	11000
Fc1ccc2c(c1)[nH]c1cnccc12 [Example 31]	3300
COc1c(Cl)cc2c([nH]c3cnccc32)c1NC(=O)c1cccnc1 [Example 68, N-(6-Chloro-7-methoxy-9H-β-carbolin-8-yl)-nicotinamide]	160
COc1c(Cl)cc2c([nH]c3cnccc32)c1NC(=O)c1ccc(F)cc1 [Example 114]	2100
CCOc1ccc2c(c1)[nH]c1c(C)nccc12 [Example 27]	4500
CC(=O)Oc1c(Cl)cc2c([nH]c3cnccc32)c1Cl [Example 101]	1800
O=C1CC[C@@H](C(=O)Nc2cc(Cl)cc3c2[nH]c2cnccc23)N1 [Example 103]	310
COc1c(Cl)cc2c([nH]c3cnccc32)c1NC(=O)c1ccno1 [Example 119]	600
Cc1cc(C(=O)Nc2cc(Cl)cc3c2[nH]c2cnccc23)n(C)n1 [Example 106]	600
Cn1c2ccc(Br)cc2c2ccncc21 [Example 11]	700
Cc1oc(C(F)(F)F)cc1C(=O)Nc1cc(Cl)cc2c1[nH]c1cnccc12 [Example 77]	4400
CCOc1c(Cl)cc2c([nH]c3cnccc32)c1Cl [Example 39]	100
COc1c([N+](=O)[O-])cc2c([nH]c3cnccc32)c1Cl [Example 94]	640
O=C(COc1ccccc1)Nc1cc(Cl)cc2c1[nH]c1cnccc12 [Example 100]	1500
O=C(Nc1cc(Cl)cc2c1[nH]c1cnccc12)c1ccc(F)c(F)c1 [Example 82, N-(6-Chloro-9H-β-carbolin-8-yl)-3,4-difluoro-benzamide]	150
COc1ccc2c([nH]c3cnccc32)c1Cl [Example 36, trifluoroacetate]	1400
CC(C)Oc1c(Cl)cc2c([nH]c3cnccc32)c1Cl [Example 84]	100
CNc1cc(Cl)cc2c1[nH]c1cnccc12 [Example 43, trifluoroacetate]	1000
CS(=O)(=O)Nc1cc(Cl)cc2c1[nH]c1cnccc12 [Example 45, trifluoroacetate]	8300
Fc1cc2[nH]c3cnccc3c2cc1Cl [Example 40, trifluoroacetate]	2000
Brc1ccc2[nH]c3cnccc3c2c1 [Example 1]	400
N#Cc1cccc(C(=O)Nc2cc(Cl)cc3c2[nH]c2cnccc23)c1 [Example 72]	580

Second part, the compound after the results:

IC50 [nM]	Structure (SMILES)
2300	Cn1nc(C(C)(C)C)cc1C(=O)Nc1cc(Cl)cc2c1[nH]c1cnccc12 [Example 78]
3200	O=C(Oc1c(Cl)cc2c([nH]c3cnccc32)c1Cl)N1CCOCC1 [Example 59]
110	Clc1cc2c([nH]c3cnccc32)c(Cl)c1OCC1CC1 [Example 64]
270	O=C(Nc1cc(Cl)cc2c1[nH]c1cnccc12)c1ccncc1 [Example 56]
900	CN(C)CC(=O)Nc1cc(Cl)cc2c1[nH]c1cnccc12 [Example 98]
500	COc1c(Cl)cc2c([nH]c3cnccc32)c1N [Example 67]
900	O=C(Nc1cc(Cl)cc2c1[nH]c1cnccc12)c1cccs1 [Example 76]
290	O=C(Nc1cc(Cl)cc2c1[nH]c1cnccc12)c1ccco1 [Example 75]
1400	O=C(COCc1ccccc1)Nc1cc(Cl)cc2c1[nH]c1cnccc12 [Example 90]
930	O=S(=O)(Nc1cc(Cl)cc2c1[nH]c1cnccc12)c1ccc(F)cc1 [Example 112]
400	CC(C)(C)c1cc(C(=O)Nc2cc(Cl)cc3c2[nH]c2cnccc23)n(Cc2ccccc2)n1 [Example 107]
2100	O=C(Cc1ccccn1)Nc1cc(Cl)cc2c1[nH]c1cnccc12 [Example 108]
400	N#Cc1ccc(C(=O)Nc2cc(Cl)cc3c2[nH]c2cnccc23)cc1 [Example 73]
700	COc1cc2[nH]c3cnccc3c2cc1Cl [Example 66]
940	O=C(Nc1cc(Cl)cc2c1[nH]c1cnccc12)c1ccccc1F [Example 61]
15000	NC(=O)Cn1c2ccc(Cl)cc2c2ccncc21 [Example 22]
310	Cc1cc(C(=O)Nc2cc(Cl)cc3c2[nH]c2cnccc23)no1 [Example 80]
23000	CCOC(=O)Cn1c2ccc(Cl)cc2c2ccncc21 [Example 18]
330	CC(C)(C)C(=O)Oc1c(Cl)cc2c([nH]c3cnccc32)c1Cl [Example 58]
60	O=C(Nc1cc(Cl)cc2c1[nH]c1cnccc12)c1ccc(Cl)nc1 [Example 83, 6-Chloro-N-(6-chloro-9H-β-carbolin-8-yl)-nicotinamide]
1000	COc1c(N)cc2c([nH]c3cnccc32)c1Cl [Example 95]
1400	COc1ccc(C(=O)Nc2cc(Cl)cc3c2[nH]c2cnccc23)cc1 [Example 53, 7-chloro-9-(4-methoxybenzoxylamino)-β-carboline trifluoroacetate]

IC50 [nM]	Structure (SMILES)
380	O=C(Nc1cc(Cl)cc2c1[nH]c1cnccc12)c1ccccc1F [Example 62]
800	Nc1cc(Cl)cc2c1[nH]c1cnccc12 [Example 15]
600	COc1cccc(C(=O)Nc2cc(Cl)cc3c2[nH]c2cnccc23)c1 [Example 52, 7-chloro-9-(3-methoxybenzoxylamino)-β-carboline trifluoroacetate]
100	Clc1cc2c([nH]c3cnccc32)c(Cl)c1OCC1CC1 [Example 65]
200	CC(C)COc1c(Cl)cc2c([nH]c3cnccc32)c1Cl [Example 85]
400	Clc1cc2c([nH]c3cnccc32)c(Cl)c1OC1CCCC1 [Example 92]
640	O=C(Nc1cc(Cl)cc2c1[nH]c1cnccc12)c1ccc(Br)cc1 [Example 113]
120	COc1c(Cl)cc2c([nH]c3cnccc32)c1NC(=O)c1ccc(Cl)nc1 [Example 118]
200	Clc1cc(Cl)c2[nH]c3cnccc3c2c1 [Example 9]
360	COCOc1c(Cl)cc2c([nH]c3cnccc32)c1Cl [Example 70]
3000	COc1ccc(C(=O)Nc2cc(Cl)cc3c2[nH]c2cnccc23)cc1OC [Example 71]
12000	Cc1nccc2c1[nH]c1cc(OCc3ccccc3)ccc12 [Example 26]
3800	O=C(Nc1cc(Cl)cc2c1[nH]c1cnccc12)c1ccc(C(F)(F)F)cc1 [Example 74]
180	O=C(Nc1cc(Cl)cc2c1[nH]c1cnccc12)c1ccno1 [Example 79]
5000	O=C(N1CCOCC1)n1c2ccc(Br)cc2c2ccncc21 [Example 17]
4000	O=[N+]([O-])c1cc(Cl)cc2c1[nH]c1cnccc12 [Example 14]
1300	COc1cc2[nH]c3cnccc3c2cc1[N+](=O)[O-] [Example 63]
2100	O=C(Nc1cc(Cl)cc2c1[nH]c1cnccc12)c1cccc(=O)[nH]1 [Example 109]
690	O=C(Cc1cccnc1)Nc1cc(Cl)cc2c1[nH]c1cnccc12 [Example 97]
3000	OCCn1c2ccc(Cl)cc2c2ccncc21 [Example 19]
400	COc1c(Cl)cc2c([nH]c3cnccc32)c1NC(=O)c1ccc(F)c(F)c1 [Example 120]

— patent US7348336B2 (Sanofi-Aventis Deutschland GmbH, priority 2000, dated 2008)
